Test results: patent US8962528B2, “Penoxsulam as an herbicide in alfalfa” (Dow AgroSciences, LLC., priority 2011, dated 2015)

Columns and labels:
[1] = system: CAPBP = Capsella bursa-pastoris, Shepherd's purse; assay: Field trial of weed control in dormant alfalfa; format: in vivo; conditions: for Control % Visual CAPBP: 45 DAAA, POST, NOV/JAN
Procedure: (§1) A field trial (California) was conducted in field-grown alfalfa using standard herbicide small plot research methodology. Plots were 7.5 ft by 20 ft long with 4 replicates per treatment. The alfalfa crop was already established the previous season and was grown using normal cultural practices for fertilization, seeding, watering, and maintenance to ensure good growth of the crop. All treatments in the field trials were applied using a CO2 backpack sprayer calibrated to apply 187 L/ha spray volume. Commercially available product of penoxsulam was mixed in water at appropriate formulated product rates to achieve the desired rates based on a unit area of application (hectare). Treatments were sprayed as a postemergence application to the soil when alfalfa was in the late dormant stage of growth. “Late dormant” growth stage is defined as when the crop is not actively growing during the winter season and just prior to emerging from dormancy and starting new growth for the growing season. Treatments were rated at 26 to 63 days after the application as compared to the untreated control plants, when the alfalfa crop was no longer dormant. Visual crop injury ratings were scored on a scale of 0 to 100 where 0 corresponds to no injury and 100 corresponds to complete control.

[2] = system: POAAN = Poa annua, annual bluegrass; assay: Field trial of weed control in dormant alfalfa; format: in vivo; conditions: for Control % Visual POAAN: 45 DAAA, POST, NOV/JAN
Procedure: as §1

[3] = system: STEME = Stellaria media, chickweed; assay: Field trial of weed control in dormant alfalfa; format: in vivo; conditions: for Control % Visual STEME: 45 DAAA, POST, NOV/JAN
Procedure: as §1

alfalfa = conditions: in vivo
Procedure: as §1

[4] = 35 gr ai/ha + AGRI-DEX COC 2.33 liter/ha
[5] = 70 gr ai/ha + AGRI-DEX COC 2.33 liter/ha
[6] = 140 gr ai/ha + AGRI-DEX COC 2.33 liter/ha
[7] = 45DAAA, all rates, burndown and/or residual activity

Compound: COc1cnc(OC)n2nc(NS(=O)(=O)c3c(OCC(F)F)cccc3C(F)(F)F)nc12 [PENOXSULAM]
- Control % Visual CAPBP [1, 4]: 100 a % Visual
- Control % Visual CAPBP [1, 5]: 100 a % Visual
- Control % Visual CAPBP [1, 6]: 100 a % Visual
- control of CAPBP (Sheperd's purse) [1, 7]: 100%
- Control % Visual POAAN [2, 4]: 65 b % Visual
- Control % Visual POAAN [2, 5]: 79 ab % Visual
- Control % Visual POAAN [2, 6]: 91 a % Visual
- control of grass weed POAAN (annual bluegrass) ([2]; 45DAAA, dependent on the rate applied): significant suppression/partial control
- Control % Visual STEME [3, 4]: 100 a % Visual
- Control % Visual STEME [3, 5]: 100 a % Visual
- Control % Visual STEME [3, 6]: 100 a % Visual
- control of STEME (chickweed) [3, 7]: 100%
- % Visual Injury of alfalfa compared to the Untreated (alfalfa): some slight visual injury
- alfalfa growth (% Visual Regrowth) as compared to the Untreated (alfalfa): no effect
- alfalfa regrowth as compared to the Untreated (alfalfa): no significant difference
